Data published in patent publication US12703729B2, “GIP agonist compounds and methods” (Zealand Pharma A/S, priority 2014, dated 2026).
Starred links: 1 amine or outer side, 2 acyl side, 3 side chain; linkers in the order of their positions; H or OH if unused. Non-standard residues stand in square brackets, D forms with d. Residues, ends and D or L forms follow the SMILES beside them. Groups on a side chain read outwards from the residue. *: point of attachment. X1 = O=C(O)CCCCCCCCCCCCCCCCCCC(=O)N1CCN(CC(=O)*)CC1; C20 diacid = O=C(O)CCCCCCCCCCCCCCCCCCC(=O)*; γGlu = O=C(O)[C@H](CCC(=O)[*:2])N[*:1]; AEEA = NCCOCCOCC(=O)O; Aib = CC(C)(N)C(=O)O

What was measured:
[1] = biological target: T1, human GIP R (Homo sapiens, UniProt P48546); experiment: cell-based
T1 sequence (P48546 22-466): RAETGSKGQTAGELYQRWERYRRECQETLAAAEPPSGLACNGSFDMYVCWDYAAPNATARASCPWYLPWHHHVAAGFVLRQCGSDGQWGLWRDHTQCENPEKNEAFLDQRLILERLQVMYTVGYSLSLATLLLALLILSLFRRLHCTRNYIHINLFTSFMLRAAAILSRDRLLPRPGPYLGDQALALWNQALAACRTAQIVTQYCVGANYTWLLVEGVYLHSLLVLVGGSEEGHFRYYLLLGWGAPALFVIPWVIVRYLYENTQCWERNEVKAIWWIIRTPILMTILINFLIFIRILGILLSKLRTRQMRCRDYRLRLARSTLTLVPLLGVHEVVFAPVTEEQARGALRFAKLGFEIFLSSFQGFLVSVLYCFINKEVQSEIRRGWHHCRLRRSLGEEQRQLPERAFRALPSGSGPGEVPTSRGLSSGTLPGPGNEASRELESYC

[2] = biological target: T2, human GIP receptor (GIP R) (Homo sapiens, UniProt P48546); experiment: Activity assay at human GIP receptor, cAMP induction (AlphaScreen), Example 3
T2 sequence (P48546 22-466): T1 sequence (P48546 22-466)

[3] = biological target: human GLP-1 receptor (GLP-1R) (Homo sapiens, UniProt P43220); experiment: Activity assay at human GLP-1 receptor, cAMP induction (AlphaScreen), Example 3
human GLP-1 receptor (GLP-1R), sequence (P43220 24-463): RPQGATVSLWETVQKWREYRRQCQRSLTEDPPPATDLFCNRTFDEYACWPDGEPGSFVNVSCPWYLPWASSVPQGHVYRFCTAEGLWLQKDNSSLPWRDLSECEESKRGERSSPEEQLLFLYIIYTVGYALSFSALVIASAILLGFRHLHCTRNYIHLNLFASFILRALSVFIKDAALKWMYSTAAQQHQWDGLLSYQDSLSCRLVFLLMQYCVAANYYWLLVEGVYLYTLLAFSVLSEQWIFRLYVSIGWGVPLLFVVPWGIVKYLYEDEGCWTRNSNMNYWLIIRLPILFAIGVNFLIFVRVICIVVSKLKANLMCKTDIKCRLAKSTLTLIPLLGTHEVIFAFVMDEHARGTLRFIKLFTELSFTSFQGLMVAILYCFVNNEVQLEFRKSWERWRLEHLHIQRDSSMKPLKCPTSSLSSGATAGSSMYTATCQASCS

SMILES | EC50 [1] | EC50 [2] | EC50 [3]
CC[C@H](C)[C@H](NC(=O)[C@H](CO)NC(=O)[C@H](Cc1ccc(O)cc1)NC(=O)[C@H](CC(=O)O)NC(=O)[C@H](CO)NC(=O)[C@@H](NC(=O)[C@H](Cc1ccccc1)NC(=O)[C@@H](NC(=O)CNC(=O)[C@H](CCC(=O)O)NC(=O)C(C)(C)NC(=O)[C@@H](N)Cc1ccc(O)cc1)[C@@H](C)O)[C@@H](C)CC)C(=O)N[C@@H](CCC(=O)O)C(=O)N[C@@H](CC(C)C)C(=O)N[C@@H](CC(=O)O)C(=O)N[C@@H](CCCCN)C(=O)N[C@@H](CCCCNC(=O)COCCOCCNC(=O)COCCOCCNC(=O)CC[C@H](NC(=O)CCCCCCCCCCCCCCCCCCC(=O)O)C(=O)O)C(=O)N[C@@H](C)C(=O)N[C@@H](CCC(N)=O)C(=O)N[C@@H](CCCCN)C(=O)N[C@@H](CCC(=O)O)C(=O)N[C@@H](Cc1ccccc1)C(=O)N[C@H](C(=O)N[C@@H](CCC(=O)O)C(=O)N[C@@H](Cc1c[nH]c2ccccc12)C(=O)N[C@@H](CC(C)C)C(=O)N[C@@H](CC(C)C)C(=O)N[C@@H](C)C(=O)N[C@@H](C)C(=O)NCC(=O)N1CCC[C@H]1C(=O)N[C@@H](CO)C(=O)N[C@@H](CO)C(=O)NCC(=O)N[C@@H](C)C(=O)N1CCC[C@H]1C(=O)N1CCC[C@H]1C(=O)N1CCC[C@H]1C(=O)N[C@@H](CO)C(N)=O)C(C)C [Compound 22] (H-Y[Aib]EGTFISDYSIELDKK([AEEA-AEEA-γGlu-C20 diacid])AQKEFVEWLLAAGPSSGAPPPS-NH2) | 0.005 nM | 0.007 nM | > 10 nM
CC[C@H](C)[C@H](NC(=O)[C@H](CCCCN)NC(=O)[C@H](CC(=O)O)NC(=O)[C@H](CC(C)C)NC(=O)[C@H](CCC(=O)O)NC(=O)[C@@H](NC(=O)[C@H](CO)NC(=O)[C@H](Cc1ccc(O)cc1)NC(=O)[C@H](CC(=O)O)NC(=O)[C@H](CO)NC(=O)[C@@H](NC(=O)[C@H](Cc1ccccc1)NC(=O)[C@@H](NC(=O)CNC(=O)[C@H](CCC(=O)O)NC(=O)C(C)(C)NC(=O)[C@@H](N)Cc1ccc(O)cc1)[C@@H](C)O)[C@@H](C)CC)[C@@H](C)CC)C(=O)N[C@@H](C)C(=O)N[C@@H](CCC(N)=O)C(=O)N[C@@H](CCCNC(=N)N)C(=O)N[C@@H](C)C(=O)N[C@@H](Cc1ccccc1)C(=O)N[C@H](C(=O)N[C@@H](CCC(=O)O)C(=O)N[C@@H](Cc1c[nH]c2ccccc12)C(=O)N[C@@H](CC(C)C)C(=O)N[C@@H](CC(C)C)C(=O)N[C@@H](C)C(=O)NCC(=O)N1CCC[C@H]1C(=O)N[C@@H](CO)C(=O)N[C@@H](CO)C(=O)NCC(=O)N[C@@H](C)C(=O)N1CCC[C@H]1C(=O)N1CCC[C@H]1C(=O)N1CCC[C@H]1C(=O)N[C@@H](CO)C(=O)N[C@@H](CCCCNC(=O)COCCOCCNC(=O)COCCOCCNC(=O)CC[C@H](NC(=O)CCCCCCCCCCCCCCCCCCC(=O)O)C(=O)O)C(N)=O)[C@@H](C)CC [Compound 23] (H-Y[Aib]EGTFISDYSIELDKIAQRAFIEWLLAGPSSGAPPPSK([AEEA-AEEA-γGlu-C20 diacid])-NH2) | 0.01 nM | 0.005 nM | > 10 nM
CC[C@H](C)[C@H](NC(=O)[C@H](CCCCN)NC(=O)[C@H](CC(=O)O)NC(=O)[C@H](CC(C)C)NC(=O)[C@H](CCC(=O)O)NC(=O)[C@@H](NC(=O)[C@H](CO)NC(=O)[C@H](Cc1ccc(O)cc1)NC(=O)[C@H](CC(=O)O)NC(=O)[C@H](CO)NC(=O)[C@@H](NC(=O)[C@H](Cc1ccccc1)NC(=O)[C@@H](NC(=O)CNC(=O)[C@H](CCC(=O)O)NC(=O)C(C)(C)NC(=O)[C@@H](N)Cc1ccc(O)cc1)[C@@H](C)O)[C@@H](C)CC)[C@@H](C)CC)C(=O)N[C@@H](C)C(=O)N[C@@H](CCC(N)=O)C(=O)N[C@@H](CCCCN)C(=O)N[C@@H](CCC(=O)O)C(=O)N[C@@H](Cc1ccccc1)C(=O)N[C@H](C(=O)N[C@@H](CCC(=O)O)C(=O)N[C@@H](Cc1c[nH]c2ccccc12)C(=O)N[C@@H](CC(C)C)C(=O)N[C@@H](CC(C)C)C(=O)N[C@@H](C)C(=O)NCC(=O)N1CCC[C@H]1C(=O)N[C@@H](CO)C(=O)N[C@@H](CO)C(=O)NCC(=O)N[C@@H](C)C(=O)N1CCC[C@H]1C(=O)N1CCC[C@H]1C(=O)N1CCC[C@H]1C(=O)N[C@@H](CO)C(=O)N[C@@H](CCCCNC(=O)COCCOCCNC(=O)COCCOCCNC(=O)CC[C@H](NC(=O)CCCCCCCCCCCCCCCCCCC(=O)O)C(=O)O)C(N)=O)[C@@H](C)CC [Compound 24] (H-Y[Aib]EGTFISDYSIELDKIAQKEFIEWLLAGPSSGAPPPSK([AEEA-AEEA-γGlu-C20 diacid])-NH2) | 0.008 nM | 0.01 nM | > 10 nM
CC[C@H](C)[C@H](NC(=O)[C@H](CCCCN)NC(=O)[C@H](CC(=O)O)NC(=O)[C@H](CC(C)C)NC(=O)[C@H](CCC(=O)O)NC(=O)[C@@H](NC(=O)[C@H](CO)NC(=O)[C@H](Cc1ccc(O)cc1)NC(=O)[C@H](CC(=O)O)NC(=O)[C@H](CO)NC(=O)[C@@H](NC(=O)[C@H](Cc1ccccc1)NC(=O)[C@@H](NC(=O)CNC(=O)[C@H](CCC(=O)O)NC(=O)C(C)(C)NC(=O)[C@@H](N)Cc1ccc(O)cc1)[C@@H](C)O)[C@@H](C)CC)[C@@H](C)CC)C(=O)N[C@@H](C)C(=O)N[C@@H](C)C(=O)N[C@@H](CCC(N)=O)C(=O)N[C@@H](CC(=O)O)C(=O)N[C@@H](Cc1ccccc1)C(=O)N[C@H](C(=O)N[C@@H](CCC(=O)O)C(=O)N[C@@H](Cc1c[nH]c2ccccc12)C(=O)N[C@@H](CC(C)C)C(=O)N[C@@H](CC(C)C)C(=O)N[C@@H](C)C(=O)NCC(=O)N1CCC[C@H]1C(=O)N[C@@H](CO)C(=O)N[C@@H](CO)C(=O)NCC(=O)N[C@@H](C)C(=O)N1CCC[C@H]1C(=O)N1CCC[C@H]1C(=O)N1CCC[C@H]1C(=O)N[C@@H](CO)C(=O)N[C@@H](CCCCNC(=O)COCCOCCNC(=O)COCCOCCNC(=O)CC[C@H](NC(=O)CCCCCCCCCCCCCCCCCCC(=O)O)C(=O)O)C(N)=O)[C@@H](C)CC [Compound 25] (H-Y[Aib]EGTFISDYSIELDKIAAQDFIEWLLAGPSSGAPPPSK([AEEA-AEEA-γGlu-C20 diacid])-NH2) | 0.032 nM | 0.008 nM | > 100 nM
CC[C@H](C)[C@H](NC(=O)[C@H](CCCCN)NC(=O)[C@H](CC(=O)O)NC(=O)[C@H](CC(C)C)NC(=O)[C@H](CCC(=O)O)NC(=O)[C@@H](NC(=O)[C@H](CO)NC(=O)[C@H](Cc1ccc(O)cc1)NC(=O)[C@H](CC(=O)O)NC(=O)[C@H](CO)NC(=O)[C@@H](NC(=O)[C@H](Cc1ccccc1)NC(=O)[C@@H](NC(=O)CNC(=O)[C@H](CCC(=O)O)NC(=O)C(C)(C)NC(=O)[C@@H](N)Cc1ccc(O)cc1)[C@@H](C)O)[C@@H](C)CC)[C@@H](C)CC)C(=O)N[C@@H](C)C(=O)N[C@@H](C)C(=O)N[C@@H](CCC(N)=O)C(=O)N[C@@H](CC(=O)O)C(=O)N[C@@H](Cc1ccccc1)C(=O)N[C@H](C(=O)N[C@@H](CCC(=O)O)C(=O)N[C@@H](Cc1c[nH]c2ccccc12)C(=O)N[C@@H](CC(C)C)C(=O)N[C@@H](CC(C)C)C(=O)N[C@@H](C)C(=O)NCC(=O)N1CCC[C@H]1C(=O)N[C@@H](CO)C(=O)N[C@@H](CO)C(=O)NCC(=O)N[C@@H](C)C(=O)N1CCC[C@H]1C(=O)N1CCC[C@H]1C(=O)N1CCC[C@H]1C(=O)N[C@@H](CO)C(=O)N[C@@H](CCCCNC(=O)COCCOCCNC(=O)COCCOCCNC(=O)CN1CCN(C(=O)CCCCCCCCCCCCCCCCCCC(=O)O)CC1)C(N)=O)[C@@H](C)CC [Compound 26] (H-Y[Aib]EGTFISDYSIELDKIAAQDFIEWLLAGPSSGAPPPSK([AEEA-AEEA-X1])-NH2) | 0.017 nM | 0.032 nM | > 10 nM
CC[C@H](C)[C@H](NC(=O)[C@H](CCCCN)NC(=O)[C@H](CC(=O)O)NC(=O)[C@H](CC(C)C)NC(=O)[C@H](CCC(=O)O)NC(=O)[C@@H](NC(=O)[C@H](CO)NC(=O)[C@H](Cc1ccc(O)cc1)NC(=O)[C@H](CC(=O)O)NC(=O)[C@H](CO)NC(=O)[C@@H](NC(=O)[C@H](Cc1ccccc1)NC(=O)[C@@H](NC(=O)CNC(=O)[C@H](CCC(=O)O)NC(=O)C(C)(C)NC(=O)[C@@H](N)Cc1ccc(O)cc1)[C@@H](C)O)[C@@H](C)CC)[C@@H](C)CC)C(=O)N[C@@H](C)C(=O)N[C@@H](C)C(=O)N[C@@H](CCC(N)=O)C(=O)N[C@@H](CC(=O)O)C(=O)N[C@@H](Cc1ccccc1)C(=O)N[C@H](C(=O)N[C@@H](CCC(=O)O)C(=O)N[C@@H](Cc1c[nH]c2ccccc12)C(=O)N[C@@H](CC(C)C)C(=O)N[C@@H](CC(C)C)C(=O)N[C@@H](C)C(=O)NCC(=O)N1CCC[C@H]1C(=O)N[C@@H](CO)C(=O)N[C@@H](CO)C(=O)NCC(=O)N[C@@H](C)C(=O)N1CCC[C@H]1C(=O)N1CCC[C@H]1C(=O)N1CCC[C@H]1C(=O)N[C@@H](CO)C(=O)N[C@@H](CCCCNC(=O)COCCOCCNC(=O)COCCOCCNC(=O)CC[C@H](NC(=O)CCCCCCCCCCCCCCCCCCC(=O)O)C(=O)O)C(N)=O)C(C)C [Compound 27] (H-Y[Aib]EGTFISDYSIELDKIAAQDFVEWLLAGPSSGAPPPSK([AEEA-AEEA-γGlu-C20 diacid])-NH2) | 0.013 nM | 0.017 nM | > 10 nM
